Assay results reported in PubChem BioAssay (NCI).
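96-well plates; 48 h exposure; 5 concentrations. Endpoints by linear interpolation between flanking doses. Not reached: highest tested concentration assigned. Definition used: TGI = concentration required for complete inhibition of growth.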

Experiments:
Assay in all cases: NCI tumour cell line growth inhibition, 48 h
786-0 renal = system: 786-0 renal
DU-145 prostate = system: DU-145 prostate
HL-60(TB) leukemia = system: HL-60(TB) leukemia
K-562 leukemia = system: K-562 leukemia
LOX IMVI melanoma = system: LOX IMVI melanoma
MCF7 breast = system: MCF7 breast
MOLT-4 leukemia = system: MOLT-4 leukemia
NCI-H226 lung = system: NCI-H226 lung
NCI-H522 lung = system: NCI-H522 lung
OVCAR-5 ovarian = system: OVCAR-5 ovarian
OVCAR-8 ovarian = system: OVCAR-8 ovarian
SF-295 CNS = system: SF-295 CNS
SK-MEL-2 melanoma = system: SK-MEL-2 melanoma
SNB-19 CNS = system: SNB-19 CNS
SR leukemia = system: SR leukemia
TK-10 renal = system: TK-10 renal
HCC-2998 colon = system: HCC-2998 colon
SK-OV-3 ovarian = system: SK-OV-3 ovarian
T-47D breast = system: T-47D breast

| SMILES | TGI (786-0 renal) [µM] | TGI (DU-145 prostate) [µM] | TGI (HL-60(TB) leukemia) [µM] | TGI (K-562 leukemia) [µM] | TGI (LOX IMVI melanoma) [µM] | TGI (MCF7 breast) [µM] | TGI (MOLT-4 leukemia) [µM] | TGI (NCI-H226 lung) [µM] | TGI (NCI-H522 lung) [µM] | TGI (OVCAR-5 ovarian) [µM] | TGI (OVCAR-8 ovarian) [µM] | TGI (SF-295 CNS) [µM] | TGI (SK-MEL-2 melanoma) [µM] | TGI (SNB-19 CNS) [µM] | TGI (SR leukemia) [µM] | TGI (TK-10 renal) [µM] | TGI (HCC-2998 colon) [µM] | TGI (SK-OV-3 ovarian) [µM] | TGI (T-47D breast) [µM] |
| --- | --- | --- | --- | --- | --- | --- | --- | --- | --- | --- | --- | --- | --- | --- | --- | --- | --- | --- | --- |
| Nc1ccc(Oc2ccc(C3(c4ccc(Oc5ccc(N)cc5)cc4)C4CC5CC(C4)CC3C5)cc2)cc1 | 19.1 | > 53.5 | 44.3 | > 100 | > 28.4 | > 52.7 | > 100 | > 78.4 | > 59.7 | > 100 | > 48.9 | 73.8 | > 100 | > 100 | 20.3 | > 92.4 |  |  |  |
| C=C/C(C)=C\CC1[C@](C)(O)CC[C@H]2C(C)(C)C(O)CC[C@]12C (stereo not given in full) | > 100 | > 100 | > 100 | > 100 | > 100 | > 100 | > 100 | > 100 | > 100 | > 100 | > 100 | > 100 | > 100 | > 100 | > 100 | > 100 |  |  |  |
| C[Si](C)(N[Si](C)(C)OCCc1ccccc1)OCCc1ccccc1 | > 100 | > 100 | > 100 |  | > 100 | > 100 |  | > 100 |  | > 100 | > 100 | > 100 | > 100 | > 100 |  | > 100 | > 100 | > 100 | > 100 |
| O=C(CCCN1CCC2(CC1)CC(=O)N(N1CCOCC1)C2=O)c1ccc(F)cc1 | > 100 | > 100 | > 100 | > 100 | > 100 | > 100 | > 100 | > 100 | > 100 | > 100 | > 100 | > 100 | > 100 | > 100 |  | > 100 |  | > 100 | > 100 |
| COc1ccc(C2=C(N)c3c(Cl)cccc3C2=O)cc1 | > 100 | > 100 | > 100 |  | > 100 | > 100 | > 100 | > 100 | > 100 | > 100 | > 100 | > 100 | > 100 | > 100 |  |  | > 100 | > 100 | > 100 |
| CN(C)CCNC(=O)c1cccc2c(NC(CS)C(=O)O)c3ccccc3[n+](C)c12 (stereo not given) | > 100 | > 100 |  | > 100 | > 100 | > 100 | > 100 |  |  | > 100 | > 100 | > 100 | > 100 | > 100 | > 100 | > 100 | > 100 | > 100 | > 100 |
| O=C(OCc1ccc([N+](=O)[O-])cc1)N1c2ccccc2[C@@]23O[C@]24CCC[C@H]3C#C/C=C\C#C[C@H]14 | > 100 | > 100 | > 100 | > 100 | > 100 | > 100 | > 100 | > 100 | > 100 | > 100 | > 100 | > 100 | > 100 | > 100 |  | > 100 | > 100 | > 100 | > 100 |
| CC1CC/C(=C\c2ccc(N(C)C)cc2)C2=C1C(c1ccc(N(C)C)cc1)NC(=S)N2 (stereo not given) | > 100 | > 100 | > 100 | > 100 | > 100 | > 100 | > 100 | > 100 |  | > 100 | > 100 | > 100 | > 100 | > 100 |  | > 100 |  | > 100 | > 100 |
| CCOC(=O)C1(N)CCc2[nH][nH]c(=O)c2C1 (stereo not given) | > 100 |  | > 100 | > 100 | > 100 | > 100 | > 100 | > 100 | > 100 | > 100 | > 100 | > 100 | > 100 | > 100 | > 100 | > 100 | > 100 | > 100 | > 100 |
| CC(C)CC(=O)NC(C(=O)NC(C(=O)NC(CC(C)C)C(O)CC(=O)NC(C)C(=O)NC(CC(C)C)C(O)CC(=O)O)C(C)C)C(C)C (stereo not given) | > 100 | > 100 |  | > 100 | > 100 | > 100 | > 100 | > 100 | > 100 | > 100 | > 100 | > 100 | > 100 | > 100 | > 100 | > 100 | > 100 | > 100 |  |
| COc1cc2oc(-c3ccc4c(c3)OCO4)c(OC)c(=O)c2c(OC)c1O | 43.9 | > 100 | 84 | > 100 | > 100 | > 100 | > 100 | > 100 | 59.2 | > 100 | > 100 | > 100 |  | > 100 |  | > 100 | > 100 | > 100 | > 100 |
| CN(C)CCCNC(=O)CCNC(=O)c1cc(NC(=O)c2cc(NC(=O)c3cc(NC(=O)c4nccn4C)cn3C)cn2C)cn1C | > 100 | > 100 | > 100 | > 100 | > 100 | > 100 | > 100 | > 100 | 97 | > 100 | > 100 | > 100 | > 100 | > 100 |  | > 100 | > 100 | > 100 | 97.4 |
| CC1=NC2c3c(-c4ccc(Cl)cc4)cn(-c4ccc(C)cc4)c3N=CN2N1 (stereo not given) | > 100 | > 100 | > 100 | > 100 | > 100 | > 100 |  | > 100 | > 100 | > 100 | > 100 | > 100 | > 100 | > 100 | > 100 | > 100 | > 100 | > 100 |  |
| O=c1/c(=C/c2ccc([N+](=O)[O-])o2)sc2n1[C@@H](c1ccc(Cl)cc1)C=C(c1cc(F)c(Cl)cc1Cl)N=2 | 20.7 | 39.9 | 49.2 | 36.9 | 33.6 | 32.2 | 45.9 | 32.4 | 49.2 | 30.6 | 40.8 | 72.4 | 17.6 | 33.6 |  | 36.2 |  | 50.8 | 52.7 |
| O=C1/C(=C/c2ccco2)N=C2Sc3c(nc[nH]c3=O)N12 | > 100 | > 100 | > 100 | > 100 | > 100 | > 100 | > 100 | > 100 | > 100 | > 100 | > 100 | > 100 | > 100 | > 100 |  | > 100 |  | > 100 | > 100 |
| N#Cc1ccc(N2CCOCC2)cc1 | > 100 | > 100 | > 100 |  | > 100 | > 100 | > 100 |  | > 100 | > 100 | > 100 | > 100 | > 100 | > 100 |  | > 100 |  | > 100 | > 100 |
| COC(=O)[C@H](Cc1c[nH]c2ccccc12)NP(=O)(O)OC[C@H]1O[C@@H](n2cc(C)c(=O)[nH]c2=O)C[C@@H]1N=[N+]=[N-] | > 100 | > 100 | > 100 | > 100 | > 100 | > 100 | > 100 | > 100 | > 100 | > 100 | > 100 | > 100 | > 100 | > 100 |  | > 100 | > 100 | > 100 | > 100 |
| O=C(NNC1=NCCCCN1)Nc1ccc(Cl)cc1 | > 100 |  | > 100 | > 100 | > 100 | > 100 | 72.4 | > 100 | > 100 | > 100 | > 100 | > 100 | > 100 | > 100 | > 100 | > 100 | > 100 | > 100 | > 100 |
| O=C(CC(C(=O)c1cccs1)c1ccsc1)c1ccccc1 (stereo not given) | > 100 | > 100 |  |  | > 100 | 99.1 | > 100 | > 100 | > 100 | > 100 | > 100 | > 100 |  |  | > 100 | > 100 | > 100 | > 100 | > 100 |
| Cc1ccc(N=NC(=Nc2ccc(Cl)cc2)c2ccc(N(CCC#N)CCC#N)cc2)cc1 | > 100 | > 100 |  | > 100 |  | > 100 | > 100 | > 100 | 66 | > 100 | > 100 | > 100 |  | > 100 | > 100 | 95.8 | 90.1 | > 100 | > 100 |
| CC1=NNC(=O)C1C1CC(c2c[nH]c3ccccc23)=NN(C(N)=O)C1=O (stereo not given) | > 100 | > 100 | > 100 | > 100 | > 100 |  | > 100 | > 100 | > 100 | > 100 | > 100 | > 100 | > 100 | > 100 |  | > 100 |  | > 100 | > 100 |
| CCOC(=O)C1(C(=O)OCC)C[C@@H](C)[C@@H](O)C1 | > 100 | > 100 | > 100 | > 100 | > 100 | > 100 | > 100 | > 100 | > 100 | > 100 | > 100 | > 100 | > 100 | > 100 | > 100 | > 100 |  | > 100 |  |
| CCOC(=O)C1C(C)C2(C#N)C(=N)OC1(C)C2(C#N)C#N (stereo not given) | > 100 | > 100 | 60.3 | > 100 | 67.1 | > 100 |  | > 100 | > 100 | > 100 | > 100 | > 100 | > 100 | > 100 |  | > 100 |  | > 100 | > 100 |
| O=C(O)c1nc2ccc(C(F)(F)F)cc2nc1NCc1ccc(Cl)c(Cl)c1 | 29.3 | 32.5 |  | 42.1 | 29.8 | 45.3 | 34.2 | 44.1 |  | 26.3 | 32.8 | 37.2 | 27.8 | 25.1 | 36.5 |  | 30.5 | 38.5 | 35.2 |
| Cc1c2c(OCC(O)CN3CCN(c4ccccc4)CC3)nn(C)c(=O)c2c(C)n1-c1ccccc1 (stereo not given) | 42.3 | > 100 | 49.1 | 69.2 |  | 36.5 | 88.9 | 54.5 | 42.2 | 62 | > 100 | 51.3 | 33.1 | > 100 |  | > 100 | 78.3 | > 100 | 71.8 |
| CC1(C)C2CC(O)C1CCC2=O (stereo not given) | > 100 | > 100 | > 100 | > 100 | > 100 | > 100 | > 100 | > 100 | > 100 | > 100 | > 100 | > 100 | > 100 | > 100 |  | > 100 | > 100 | > 100 | > 100 |
| COc1ccc2[nH]cc(C(=O)C(=O)NC34CC5CC(CC(C5)C3)C4)c2c1 | 47.5 | > 100 |  | 37.6 | > 100 | > 31.6 | 16.6 | > 71.1 | > 100 | > 100 | > 100 | > 54.6 | > 100 | > 100 |  | > 100 | > 100 | > 100 | > 100 |
